Source: patent US11685716B2, “Plant growth inhibiting agent, and plant growth inhibiting method using same” (NATIONAL UNIVERSITY CORPORATION KUMAMOTO UNIVERSITY, priority 2017, dated 2023)

Key:
[1] = system: thale cress; experiment: Plant growth inhibition index, thale cress on agar medium in test tube (Evaluation 8, 9); format: in vivo, thale cress (Col-0, wild-type strain); set-up: key: 0: No effect; 1: Growth of the root part was inhibited 50% or less compared with non-treated area.; 2: Growth of the root part was inhibited 50% or more compared with non-treated area.; 3: Growth of the root part was substantially inhibited.; 4: Germination was inhibited; details: for index on the plant growth inhibition effect: 200 μM, 8 days (Evaluation 8); for Index: Concentration 200 μM, 8 days (Evaluation 9, Table 2)
Protocol: 0.44% (w/v) Mixed salts for Murashige and Skoog medium (SIGMA), 1% (w/v) sucrose, and 0.05% (w/v) MES were mixed, and pH of the solution was adjusted to pH 5.7 with potassium hydroxide. 1.5% (w/v) Agar was added to the mixture, which was sterilized at 120° C. in an autoclave for 20 minutes. The test compound and dimethylformamide containing 1.5% of polyoxyethylenesorbitan monolaurate for a control experiment, were added at this stage and blended. In addition, the compound was used by adjusting an addition concentration to 200 μM. Four ml each of the medium was dispensed in sterile glass test tube ([…] RIKA GLASS CO., LTD.) to prepare agar medium.
As a plant material, Col-0, which is a wild-type strain of thale cress, was used.
Seeds, after their surfaces were sterilized, were planted on the agar medium, and the growth of the plant was carried out in a plant incubator (CFH-405) under the conditions of an illuminance of 3 at 23° C. with constant light. The plants on the agar medium were grown for 8 days in the chamber.
The plant growth inhibition effect of the compounds was evaluated by conversion to indexes according to the following investigation criteria.

[2] = system: Ragweed; experiment: Seed treatment, plant growth inhibition index (Evaluation 11); format: in vivo; set-up: key: 0: No effect; 1: Growth of the root part was inhibited 50% or less compared with non-treated area.; 2: Growth of the root part was inhibited 50% or more compared with non-treated area.; 3: Growth of the root part was substantially inhibited.; 4: Germination was inhibited
Protocol: (§1) The compound of the present invention (2 mg) was dissolved in a 1.5% Tween dimethylformamide solution (100 μL) to use as a test chemical solution.
(§2) Eight mL of sterilized water was poured to a cherry cup (100Φ×45 mm) lined with a filter paper, subsequently 81.1 μL of the sterilized water was removed, and 81.1 μL of the test chemical solution was added such that a final concentration of the compound was 800 μM.
(§3) Further, cherry cups were similarly prepared such that a final concentration of the compound was 200 μM.
(§4) Seeds (Japanese millet: 3 grains, velvet leaf: 6 grains, Ragweed: 8 grains, morning glory: 2 grains) were planted on the filter paper in the cherry cups, followed by growing the plants in a thermostatic chamber at 25° C. under a light-dark cycle in which a light period is 12 hours and a dark period is 12 hours for 6 days.
(§5) In addition, with regards to the compound (9a) and the compound (9b), the plants were tested for 7 days.
(§6) Plant growth inhibition effects of the compounds were evaluated by conversion to indexes according to the following investigation criteria.

[3] = system: velvet leaf; experiment: as above; format: in vivo; set-up: key: 0: No effect; 1: Growth of the root part was inhibited 50% or less compared with non-treated area.; 2: Growth of the root part was inhibited 50% or more compared with non-treated area.; 3: Growth of the root part was substantially inhibited.; 4: Germination was inhibited
Protocol: as §1, §2, §3, §4, §5, §6

[4] = system: morning glory; experiment: as above; format: in vivo; set-up: key: 0: No effect; 1: Growth of the root part was inhibited 50% or less compared with non-treated area.; 2: Growth of the root part was inhibited 50% or more compared with non-treated area.; 3: Growth of the root part was substantially inhibited.; 4: Germination was inhibited
Protocol: as §1, §2, §3, §4, §5, §6

[5] = system: Japanese millet; experiment: as above; format: in vivo; set-up: key: 0: No effect; 1: Growth of the root part was inhibited 50% or less compared with non-treated area.; 2: Growth of the root part was inhibited 50% or more compared with non-treated area.; 3: Growth of the root part was substantially inhibited.; 4: Germination was inhibited
Protocol: as §1, §2, §3, §4, §5, §6

[6] = system: Japanese bristlegrass; experiment: Spray treatment to stems and leaves, killing weed index (Evaluation 10); format: in vivo; details: 2000 g active ingredient per hectare, two weeks later
Protocol: (§7) POA allyl phenyl ether (4.1 parts by weight), POE-POP glycol (1 part by weight), POE sorbitan laurate (0.8 parts by weight), glycerin (2.6 parts by weight), dimethylformamide (65.9 parts by weight), N-methylpyrrolidone (5.1 parts by weight), cyclohexanone (15.4 parts by weight), and aromatic hydrocarbon (5.1 parts by weight) were mixed and dissolved to prepare an emulsion. The compounds of the present invention (4 mg) were dissolved in this emulsion (100 μL) to prepare a test emulsion. In addition, POA means “polyoxyalkylene”, POE means “polyoxyethylene”, and POP means “polyoxypropylene.”
(§8) Four hundred μL of the above test emulsion was diluted with 7600 μL of water to use as a test spray liquid.
(§9) Further, 400 μL of the above test emulsion was diluted with 1600 μL of a 1% Tween20 aqueous solution to use as a spray liquid for a small amount spray test.
(§10) For a comparative spray liquid, 53 μL of a 30% pendimethalin emulsion (Gogosan emulsion: manufactured by BASF Japan) as a control pesticides was diluted with 7947 μL of water. Further, for a comparative spray liquid for a small amount spray test, 53 μL of the 30% pendimethalin emulsion was diluted with 1947 μL of water.
(§11) A 150 cm^2 pot was filled with a soil, seeds of each purple amaranth, Japanese bristlegrass, southern crabgrass, and velvet leaf were sown on the surface layer, lightly covered with a soil and grown in a greenhouse. When each plant grew to a plant height of 2 to 9 cm, the test spray liquid was sprayed to the stem and leaf parts with a small spraying machine such that an active ingredient amount was 2000 g per hectare and a sprayed liquid amount was 1000 L per hectare.
(§12) Similarly, the test spray liquid for a small amount spray test was sprayed to the stem and leaf parts with a small spraying machine such that an active ingredient amount was 2000 g per hectare and a sprayed liquid amount was 250 L per hectare.
(§13) Two weeks later, the above-ground grass weight in non-treated areas and the above-ground grass weight in treated areas, by the weed, were measured to calculate a killing weed rate by the following calculating formula.
(§14) (a) Calculating Formula of Weeding Rate Killing weed rate (%)=(above-ground grass weight in non-treated area−above-ground grass weight in treated area)/(above-ground grass weight in non-treated area)×100 (b) Killing Weed Indexes
(§15) The obtained killing weed rates were evaluated, such that a killing weed index was “10” when a killing weed rate is 100%, as “9” when a killing weed rate is 99% to 90%, “8” when a killing weed rate is 89% to 80%, “7” when a killing weed rate is 79% to 70%, “6” when a killing weed rate is 69% to 60%, “5” when a killing weed rate is 59% to 50%, “4” when a killing weed rate is 49% to 40%, “3” when a killing weed rate is 39% to 30%, “2” when a killing weed rate is 29% to 20%, “1” when a killing weed rate is 19% to 10%, and “0” when a killing weed rate is 9% to 0%.

[7] = system: southern crabgrass; experiment: as above; format: in vivo; details: 2000 g active ingredient per hectare, two weeks later
Protocol: as §7, §8, §9, §10, §11, §12, §13, §14, §15

[8] = system: purple amaranth; experiment: as above; format: in vivo; details: 2000 g active ingredient per hectare, two weeks later
Protocol: as §7, §8, §9, §10, §11, §12, §13, §14, §15

[9] = system: velvet leaf; experiment: as above; format: in vivo; details: 2000 g active ingredient per hectare, two weeks later
Protocol: as §7, §8, §9, §10, §11, §12, §13, §14, §15

[10] = 200 μM, 6 days (9a, 9b: 7 days)
[11] = sprayed liquid amount 1000 L/ha

Row | SMILES | index on the plant growth inhibition effect [1] | plant growth inhibition index, Ragweed [2, 10] | plant growth inhibition index, Ragweed ([2]; 800 μM, 6 days) | plant growth inhibition index, Velvet leaf [3, 10] | plant growth inhibition index, Velvet leaf ([3]; 800 μM, 6 days) | plant growth inhibition index, Morning glory [4, 10] | plant growth inhibition index, Morning glory ([4]; 800 μM, 6 days) | plant growth inhibition index, Japanese millet [5, 10] | plant growth inhibition index, Japanese millet ([5]; 800 μM, 6 days) | killing weed index, Japanese bristlegrass ([6]; sprayed liquid amount 250 L/ha) | killing weed index, Japanese bristlegrass [6, 11] | killing weed index, Southern crabgrass ([7]; sprayed liquid amount 250 L/ha) | killing weed index, Southern crabgrass [7, 11] | killing weed index, Purple amaranth ([8]; sprayed liquid amount 250 L/ha) | killing weed index, Purple amaranth [8, 11] | killing weed index, Velvet leaf ([9]; sprayed liquid amount 250 L/ha) | killing weed index, Velvet leaf [9, 11] | Index [1]
1 | CCCCCCCCCOn1cccc1C(=O)O [Compound 8b] | 4 | 3 (Growth of the stem and leave parts was inhibited 30% or more compared with non-treated area, or growth of the only root part was inhibited 60% or more compared with non-treated area.) | 9 (Growth of the stem and leave parts was inhibited 90% or more compared with non-treated area.) | 0 | 8 (Growth of the stem and leave parts was inhibited 80% or more compared with non-treated area.) | 3 (Growth of the stem and leave parts was inhibited 30% or more compared with non-treated area, or growth of the only root part was inhibited 60% or more compared with non-treated area.) | 8 (Growth of the stem and leave parts was inhibited 80% or more compared with non-treated area.) | 3 (Growth of the stem and leave parts was inhibited 30% or more compared with non-treated area, or growth of the only root part was inhibited 60% or more compared with non-treated area.) | 10 | 5 (“5” when a killing weed rate is 59% to 50%) | 5 (“5” when a killing weed rate is 59% to 50%) | 2 (“2” when a killing weed rate is 29% to 20%) | 4 (“4” when a killing weed rate is 49% to 40%) | 8 (“8” when a killing weed rate is 89% to 80%) | 3 (“3” when a killing weed rate is 39% to 30%) | 6 (“6” when a killing weed rate is 69% to 60%) | 0 (“0” when a killing weed rate is 9% to 0%) | 
2 | O=C(O)c1cccn1OCCCC(F)(F)F [Compound 8i] | 2 (Growth of the root part was inhibited 50% or more compared with non-treated area.) |  |  |  |  |  |  |  |  | 1 (“1” when a killing weed rate is 19% to 10%) | 3 (“3” when a killing weed rate is 39% to 30%) | 2 (“2” when a killing weed rate is 29% to 20%) | 2 (“2” when a killing weed rate is 29% to 20%) | 0 (“0” when a killing weed rate is 9% to 0%) | 0 (“0” when a killing weed rate is 9% to 0%) | 0 (“0” when a killing weed rate is 9% to 0%) | 0 (“0” when a killing weed rate is 9% to 0%) | 
3 | CCCCCOn1cc(-c2ccccc2)cc1C(=O)O [Compound 9a, 1-Pentyloxy-4-phenyl-1H-pyrrole-2-carboxylic acid] |  | 0 |  | 0 |  | 0 |  | 3 (Growth of the stem and leave parts was inhibited 30% or more compared with non-treated area, or growth of the only root part was inhibited 60% or more compared with non-treated area.) |  | 3 (“3” when a killing weed rate is 39% to 30%) |  | 2 (“2” when a killing weed rate is 29% to 20%) |  | 8 (“8” when a killing weed rate is 89% to 80%) |  | 3 (“3” when a killing weed rate is 39% to 30%) |  | 4
4 | CCCCCCCCCOn1cc(C)cc1C(=O)O [Compound 9c] |  |  |  |  |  |  |  |  |  | 2 (“2” when a killing weed rate is 29% to 20%) | 3 (“3” when a killing weed rate is 39% to 30%) | 3 (“3” when a killing weed rate is 39% to 30%) | 5 (“5” when a killing weed rate is 59% to 50%) | 1 (“1” when a killing weed rate is 19% to 10%) | 0 (“0” when a killing weed rate is 9% to 0%) | 5 (“5” when a killing weed rate is 59% to 50%) | 0 (“0” when a killing weed rate is 9% to 0%) | 3
5 | CCCCCOn1cc(-c2ccsc2)cc1C(=O)O [Compound 9j] |  | 8 (Growth of the stem and leave parts was inhibited 80% or more compared with non-treated area.) | 9 (Growth of the stem and leave parts was inhibited 90% or more compared with non-treated area.) | 0 | 5 (Growth of the stem and leave parts was inhibited 50% or more compared with non-treated area, or growth of the only root part was inhibited 100% or more compared with non-treated area.) | 3 (Growth of the stem and leave parts was inhibited 30% or more compared with non-treated area, or growth of the only root part was inhibited 60% or more compared with non-treated area.) | 5 (Growth of the stem and leave parts was inhibited 50% or more compared with non-treated area, or growth of the only root part was inhibited 100% or more compared with non-treated area.) | 4 (Growth of the stem and leave parts was inhibited 40% or more compared with non-treated area, or growth of the only root part was inhibited 80% or more compared with non-treated area.) | 3 (Growth of the stem and leave parts was inhibited 30% or more compared with non-treated area, or growth of the only root part was inhibited 60% or more compared with non-treated area.) |  |  |  |  |  |  |  |  | 2 (Growth of the root part was inhibited 50% or more compared with non-treated area.)
